Measurements published in paper PMC5067704 (ACS Infectious Diseases, 2016).
Converted amounts (≈) assume the structure as drawn. Like-named read-outs stand apart in the source and are kept apart here.

Columns and labels:
E. coli lpxC/tolC mutant = test: microbe, parasite or virus in culture; format: cell-based; details: Escherichia coli, read-out: MIC E. coli lpxC/tolC mutant
E. coli clin isol [1] = test: MIC determination, E. coli clinical isolate (second column); format: cell-based; details: Escherichia coli, n = 4
E. coli MB4827 = test: MIC determination, E. coli MB4827; format: cell-based; details: Escherichia coli, n = 4
E. coli tolC mutant = test: microbe, parasite or virus in culture; format: cell-based, Escherichia coli; details: for MIC: Escherichia coli, read-out: MIC E. coli tolC mutant
[2] = molecular target: T1, E. coli dihydrofolate reductase (eDHFR) (Escherichia coli, UniProt P0ABQ4); test: DHFR enzyme inhibition assay; format: biochemical
T1 construct: host or cells: cell-free (PURExpress in vitro protein synthesis)
T1 sequence (P0ABQ4 whole entry): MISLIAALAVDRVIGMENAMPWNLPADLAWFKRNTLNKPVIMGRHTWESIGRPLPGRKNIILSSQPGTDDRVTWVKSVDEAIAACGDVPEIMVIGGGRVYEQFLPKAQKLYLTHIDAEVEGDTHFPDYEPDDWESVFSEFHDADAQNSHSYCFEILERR

E. coli lpxC mutant = test: microbe, parasite or virus in culture; format: cell-based; details: Escherichia coli, read-out: MIC E. coli lpxC mutant
E. coli DC2 mutant = test: microbe, parasite or virus in culture; format: cell-based; details: Escherichia coli, DC2MUTANT, read-out: MIC E. coli DC2 mutant
[3] = Cytotoxicity assay (resazurin), HepG2; format: cell-based; details: human, HepG2 cells, 20 h incubation, highest concentration 60 μM
E. coli ATCC 25922 = test: MIC determination, E. coli ATCC 25922 (wild type); format: cell-based, Escherichia coli; details: for MIC: Escherichia coli
S. aureus ATCC 25923 = test: MIC determination, S. aureus ATCC 25923; format: cell-based; details: Staphylococcus aureus
E. coli clin isol [4] = test: MIC determination, E. coli clinical isolate (first column); format: cell-based; details: Escherichia coli, n = 4
[5] = Cytotoxicity assay (resazurin), HEK 293; format: cell-based; details: human, HEK293 cells, 20 h incubation, highest concentration 60 μM
[6] = tested on: membrane-impaired mutant E. coli (LpxC and DC2); test: microbe, parasite or virus in culture; details: Escherichia coli, read-out: MIC membrane-impaired mutant E. coli (LpxC and DC2)
E. coli (ATCC 25922) = test: LC-MS/MS bacterial accumulation assay, wild type E. coli; format: cell-based, Escherichia coli; details: example of the calculation; strain and dose not stated
[7] = ATCC25922, wild type, n = 4, read-out: MIC E. coli ATCC 25922
[8] = ATCC25923, n = 4, read-out: MIC S. aureus ATCC 25923

SMILES	MIC (E. coli lpxC/tolC mutant)	MIC (E. coli clin isol [1])	MIC (E. coli MB4827)	MIC (E. coli tolC mutant)	IC50 [2]	MIC (E. coli lpxC mutant)	MIC (E. coli DC2 mutant)	CC50 at 20 h [3]	MIC (E. coli ATCC 25922; [7])	MIC (S. aureus ATCC 25923; [8])	MIC (E. coli clin isol [4])	CC50 at 20 h [5]	antimicrobial activity, fold less active than TMP (E. coli ATCC 25922; E. coli strains of Table 1)	MIC [6]	MIC E. coli ΔtolC (E. coli tolC mutant; molar equivalent of the μg/mL value)	measured concentration using LC-MS/MS (lysate) (E. coli (ATCC 25922))	MIC (E. coli ATCC 25922; ATCC25922, molar equivalent of the μg/mL value, read-out: MIC E. coli ATCC 25922, in μM)	MIC (S. aureus ATCC 25923; ATCC25923, molar equivalent of the μg/mL value, read-out: MIC S. aureus ATCC 25923, in μM)
COc1cc(Cc2cnc(N)nc2N)cc(OC)c1OCCCn1cc(CNC(=O)Cc2cc(=O)oc3cc(N(C)C)ccc23)nn1 [13a]	8 µg/mL (≈ 12.4 µM)	> 64 µg/mL	> 64 µg/mL	8 µg/mL (≈ 12.4 µM)	0.083 µM	> 64 µg/mL	> 64 µg/mL	> 60 µM	> 64 µg/mL	> 64 µg/mL	> 64 µg/mL	> 60 µM	–	–	–	–	–	–
COc1cc(Cc2cnc(N)nc2N)cc(OC)c1OCCCn1cc(CNc2ccc([N+](=O)[O-])c3nonc23)nn1 [12a]	1 µg/mL (≈ 1.73 µM)	> 64 µg/mL	> 64 µg/mL	2 µg/mL (≈ 3.46 µM)	0.254 µM	> 64 µg/mL	> 64 µg/mL	> 60 µM	> 64 µg/mL	64 µg/mL	> 64 µg/mL	> 60 µM	–	–	–	–	–	–
COc1cc(Cc2cnc(N)nc2N)cc(OC)c1OCCCCn1cc(CNC(=O)Cc2cc(=O)oc3cc(N(C)C)ccc23)nn1 [compound 13b]	2 µg/mL (≈ 3.04 µM)	> 64 µg/mL	> 64 µg/mL	2 µg/mL (≈ 3.04 µM)	0.162 µM	> 64 µg/mL	> 64 µg/mL	> 60 µM	> 64 µg/mL	> 64 µg/mL	> 64 µg/mL	> 60 µM	–	–	–	–	–	–
COc1cc(Cc2cnc(N)nc2N)cc(OC)c1OCCCCN=[N+]=[N-] [8b]	0.25 µg/mL (≈ 0.669 µM)	16 µg/mL (≈ 42.8 µM)	16 µg/mL (≈ 42.8 µM)	0.125 µg/mL (≈ 0.335 µM)	0.097 µM	–	8 µg/mL (≈ 21.4 µM)	> 60 µM	32 µg/mL	4 µg/mL	8 µg/mL (≈ 21.4 µM)	> 60 µM	–	–	–	–	–	–
COc1cc(Cc2cnc(N)nc2N)cc(OC)c1OCCCn1cc(CNS(=O)(=O)c2cccc3c(N(C)C)cccc23)nn1 [compound 14a]	0.5 µg/mL (≈ 0.772 µM)	> 64 µg/mL	> 64 µg/mL	0.5 µg/mL (≈ 0.772 µM)	0.162 µM	> 64 µg/mL	> 64 µg/mL	> 60 µM	> 64 µg/mL	> 64 µg/mL	> 64 µg/mL	59 µM	–	–	–	–	–	–
COc1cc(Cc2cnc(N)nc2N)cc(OC)c1OCCCN=[N+]=[N-] [8a]	0.25 µg/mL (≈ 0.696 µM)	4 µg/mL (≈ 11.1 µM)	8 µg/mL (≈ 22.3 µM)	0.25 µg/mL (≈ 0.696 µM)	0.066 µM	–	4 µg/mL (≈ 11.1 µM)	> 60 µM	8 µg/mL	4 µg/mL	8 µg/mL (≈ 22.3 µM)	> 60 µM	8–16 fold	–	–	–	–	–
COc1cc(Cc2cnc(N)nc2N)cc(OC)c1OCCCCCn1cc(CNc2ccc([N+](=O)[O-])c3nonc23)nn1 [compound 12c]	0.5 µg/mL (≈ 0.826 µM)	> 64 µg/mL	> 64 µg/mL	0.5 µg/mL (≈ 0.826 µM)	0.208 µM	> 64 µg/mL	> 64 µg/mL	> 60 µM	> 64 µg/mL	8 µg/mL	> 64 µg/mL	46 µM	–	–	–	–	–	–
COc1cc(Cc2cnc(N)nc2N)cc(OC)c1OCCCCCN=[N+]=[N-] [8c]	0.25 µg/mL (≈ 0.645 µM)	16 µg/mL (≈ 41.3 µM)	32 µg/mL (≈ 82.6 µM)	0.125 µg/mL (≈ 0.323 µM)	0.14 µM	8 µg/mL (≈ 20.6 µM)	8 µg/mL (≈ 20.6 µM)	> 60 µM	32 µg/mL	4 µg/mL	16 µg/mL (≈ 41.3 µM)	> 60 µM	–	–	–	–	–	–
COc1cc(Cc2cnc(N)nc2N)cc(OC)c1OCCCCCn1cc(CNC(=O)Cc2cc(=O)oc3cc(N(C)C)ccc23)nn1 [compound 13c]	1 µg/mL (≈ 1.49 µM)	> 64 µg/mL	> 64 µg/mL	1 µg/mL (≈ 1.49 µM)	0.668 µM	> 64 µg/mL	> 64 µg/mL	> 60 µM	> 64 µg/mL	> 64 µg/mL	> 64 µg/mL	> 60 µM	–	–	–	–	–	–
COc1cc(Cc2cnc(N)nc2N)cc(OC)c1OCCCCCn1cc(CNS(=O)(=O)c2cccc3c(N(C)C)cccc23)nn1 [compound 14c]	0.25 µg/mL (≈ 0.37 µM)	> 64 µg/mL	> 64 µg/mL	0.25 µg/mL (≈ 0.37 µM)	0.509 µM	> 64 µg/mL	> 64 µg/mL	51 µM	> 64 µg/mL	32 µg/mL	> 64 µg/mL	32 µM	–	–	–	–	–	–
COc1cc(Cc2cnc(N)nc2N)cc(OC)c1OC [TMP, trimethoprim, reference compound]	0.125 µg/mL (≈ 0.431 µM)	0.5 µg/mL (≈ 1.72 µM)	1 µg/mL (≈ 3.44 µM)	0.125 µg/mL (≈ 0.431 µM)	–	–	0.25 µg/mL (≈ 0.861 µM)	–	0.5 µg/mL	1 µg/mL	0.5 µg/mL (≈ 1.72 µM)	–	–	0.25 to 0.5 µg/mL (≈ 0.861 to 1.72 µM)	–	–	–	–
COc1cc(Cc2cnc(N)nc2N)cc(OC)c1OCCCCn1cc(CNc2ccc([N+](=O)[O-])c3nonc23)nn1 [compound 12b]	0.5 µg/mL (≈ 0.845 µM)	> 64 µg/mL	> 64 µg/mL	0.25 µg/mL (≈ 0.423 µM)	0.148 µM	> 64 µg/mL	> 64 µg/mL	> 60 µM	–	–	> 64 µg/mL	> 60 µM	–	–	0.37 µM	7.122 µM	24 µM	> 94 µM
COc1cc(Cc2cnc(N)nc2N)cc(OC)c1OCCCCn1cc(CNS(=O)(=O)c2cccc3c(N(C)C)cccc23)nn1 [compound 14b]	1 µg/mL (≈ 1.51 µM)	> 64 µg/mL	> 64 µg/mL	0.5 µg/mL (≈ 0.756 µM)	0.226 µM	> 64 µg/mL	> 64 µg/mL	> 60 µM	> 64 µg/mL	64 µg/mL	> 64 µg/mL	59 µM	–	–	–	–	–	–
